Results from patent US20230204598A1, “MAM-SPECIFIC FLUORESCENCE MARKER AND USE THEREOF” (POSTECH ACADEMY-INDUSTRY FOUNDATION, priority 2016, published 2023).

Tested on: MAM structure in HEK293 cells
Test: Verification of MAM specificity of the fluorescent marker using a drug (MAM suppressor)
Format: cell-based
Settings: HEK293 cells transfected with the MAM-specific bimolecular fluorescent marker; 150 μM added to the cell culture solution; incubated for 3 or 24 hours; fluorescence microscope (FIG. 7)
Protocol: HEK293 cells transfected in Example 4-1 were incubated in DMEM containing a 10% fetal bovine serum (FBS) for 24 hours under conditions of 37° C. and 5% CO2. Afterward, the culture solution was washed with PBS, and then cells were fixed by treatment with a 4% para-formaldehyde cell fixing solution for 10 minutes. The cell fixing solution was sufficiently washed with PBS, and a cover glass was immobilized on a slide glass using a mounting solution, thereby manufacturing a microscope sample. […]
The MAM-specific bimolecular fluorescent marker was transfected into HEK293 cells in the same manner as in Example 5-1, 150 μM of methyl-β-cyclodextrin known as a MAM suppressor was added to the cell culture solution, and the cells were incubated for 3 or 24 hours under cell culture conditions, thereby manufacturing a microscope sample, and then the microscope sample was observed using a fluorescence microscope.

methyl-β-cyclodextrin
fluorescence level of the MAM-specific fluorescent marker: significantly reduced
